Results taken from patent publication US20100130598A1, “METHODS FOR INDUCING PROGRAMMED CELL DEATH” (Novogen Research Pty Ltd., priority 2008, published 2010).

Columns and labels:
XIAP = assay: Western blot of EOC whole cell lysates for XIAP; assay type: cell-based, human; conditions: EOC cells, 10 g/ml (as printed, FIG. 2 legend)
From the text: (§1) Protein preparation and cellular fractionation. After drug treatment, protein was extracted and measured as previously described (Alvero et al, 2006). For separation of the cytoplasmic and mitochondrial fractions, cell pellets were processed using the ApoAlert™ Cell Fractionation Kit (BD Biosciences, San Jose, Calif.) according to the manufacturer's instructions. For separation of the cytoplasmic and nuclear fractions, pellets were processed using NE-PER Nuclear and Cytoplasmic Extraction (Pierce Biotechnology, Inc., Rockford, Ill.).
(§2) SDS-PAGE and Western blots. Cell lysates (20 μg protein) were denatured in sample buffer (2.5% SDS, 10% glycerol, 5% β-mercapto-ethanol, 0.15 M Tris (pH=6.8) and 0.01% bromophenol blue) and subjected to 12% SDS-PAGE as previously described (Kamsteeg et al, 2003). […]

[1] = tested on: phosphorylated Akt (p-Akt); assay: Western blot of EOC whole cell lysates for phospho-Akt; assay type: cell-based, human; conditions: EOC cells, 10 g/ml (as printed, FIG. 2 legend), as early as 15 mins post-treatment
From the text: as §1, §2

LC3-II = assay: Western blot of EOC whole cell lysates for LC3-II; assay type: cell-based, human; conditions: EOC cells, 10 g/ml (as printed, FIG. 3 legend)
From the text: as §1, §2

Bid, Bax, Beclin-1 = assay: Western blot of cell lysates and mitochondrial fractions for Bid, Bax, Beclin-1; assay type: cell-based, human; conditions: EOC cells
From the text: as §1
SDS-PAGE and Western blots. Cell lysates (20 μg protein) were denatured in sample buffer (2.5% SDS, 10% glycerol, 5% β-mercapto-ethanol, 0.15 M Tris (pH=6.8) and 0.01% bromophenol blue) and subjected to 12% SDS-PAGE as previously described (Kamsteeg et al, 2003). The following antibodies and concentrations were used: mouse anti-XIAP (BD, 1:1,000), rabbit anti-MAP LC3 (1:200), rabbit anti-actin (Sigma, 1:10,000), rabbit anti-phosphorylated Akt (Cell Signaling, 1:1,000), rabbit anti-Akt (Cell Signaling, 1:1000), rabbit anti-phosphorylated mTOR (Cell Signaling, 1:1000), rabbit anti-mTOR (Cell Signaling, 1:1000), rabbit anti-cytochrome c (Clontech Laboratories, Inc, Mountainview, Calif., 1:100), rabbit anti-Omi (R&D Systems, Minneapolis, Minn., 1:5000), rabbit anti-Bid (Cell Signaling, 1:1000), mouse anti-Bax (BD Pharmingen, 1:250), rabbit anti-VDAC (Sigma Aldrich, 1:2000), mouse anti-Bcl2 (BD Pharmingen, 1:500), rabbit anti-AIF (Sigma Aldrich, 1:1000), rabbit anti-EndoG (Sigma Aldrich, 1:1000), mouse anti-topoisomerase I (BD Pharmingen, 1:10,000). Proteins were visualized using enhanced chemiluminescence (Pierce, Rockford Ill.).

[2] = tested on: Caspase 2, 3 and 9 in MIAPaCa-2 cells; assay: In situ caspase activity by flow cytometry, MIAPaCa-2; assay type: cell-based, human; conditions: MIAPaCa-2, 10 μM, after 48 hrs
Experimental: (§3) Cells. Human pancreatic cell lines HPAC, MIAPaCa-2 and PANC-1 were obtained from the ATCC. (Manassas, Va.). The cells were maintained in DMEM media with Gln and high glucose (Mediatech, Manassas, Va.) with 10% fetal bovine serum (FBS, HyClone, Logan, Utah) and pencillin/streptomycin.
Caspase Activity After 48 h treatment with 10 μM Compound 10, HPAC, MIAPaCa-2 and PANC-1 cells were harvested by trypsinization and resuspended in DMEM media with 10% FBS. The cells were incubated with caspase substrates for 1 h at 37° C., 5% CO2, then probed with Annexin-V-Cy5 and sytox blue. Caspase +ve cells were gated as shown in the histograms and these cells are indicated on the Annexin-V-Cy5/sytox blue spectra as blue cells. In situ caspase activity was assayed using fluorescent substrates. For Caspase 2, FITC-VDVAD-fmk (Biovision K182-100), for Caspase 3, FITC-DEVD-fmk (K183-100) and for Caspase 9, FITC-LEHD-fmk (K199-100) was used. These substrates bind irreversibly to their respective activated caspases, and caspase activation was quantitated by flow cytometry. […] Caspase activation, apoptosis and necrosis were measured simultaneously using a violet, blue and red laser in a BD LSRII flow cytometer.

pancreatic cancer cells = assay: Simultaneous caspase activation, apoptosis and necrosis (Annexin-V-Cy5/sytox blue) by flow cytometry; assay type: cell-based, human; conditions: Compound 10-treated, 10 μM, 48 hrs
Experimental: as §3
Caspase Activity After 48 h treatment with 10 μM Compound 10, HPAC, MIAPaCa-2 and PANC-1 cells were harvested by trypsinization and resuspended in DMEM media with 10% FBS. The cells were incubated with caspase substrates for 1 h at 37° C., 5% CO2, then probed with Annexin-V-Cy5 and sytox blue. Caspase +ve cells were gated as shown in the histograms and these cells are indicated on the Annexin-V-Cy5/sytox blue spectra as blue cells. In situ caspase activity was assayed using fluorescent substrates. For Caspase 2, FITC-VDVAD-fmk (Biovision K182-100), for Caspase 3, FITC-DEVD-fmk (K183-100) and for Caspase 9, FITC-LEHD-fmk (K199-100) was used. These substrates bind irreversibly to their respective activated caspases, and caspase activation was quantitated by flow cytometry. After 1 hr incubation at 37° C. in 5% CO2, the cells were washed with DPBS containing 5% FBS and resuspended in Annexin-V binding buffer containing Annexin-V-Cy5 (Biovision K103-3) and sytox blue (Invitrogen), a dye that binds necrotic cells. Caspase activation, apoptosis and necrosis were measured simultaneously using a violet, blue and red laser in a BD LSRII flow cytometer.

PANC-1 cells = assay: Mitochondrial membrane potential by FACS (JC-1), PANC-1; assay type: cell-based, human; conditions: PANC-1, dose-dependent, 48 hrs of treatment
Experimental: as §3
(§4) FACS Analysis. Apoptosis was measured by FACS analysis using Annexin-V-FITC and propidium iodide (PI) (Biovision, Mountain View, Calif.) as probes (Ahn et al., 2003). Mitochondrial membrane potential was measured by FACS analysis using JC-1 (Biovision) as a probe (Ahn et al., 2003). Cell cycle was analyzed on ethanol-fixed, RNaseA-treated cells staining with PI. In each spectrum, 10,000 gated events were recorded and analyzed with a FACSCalibur (BD Biosciences. San Jose, Calif.). All experiments were done in triplicate, error bars represent one standard deviation. Caspase inhibitor I (zVAD-fmk) was obtained from Calbiochem.

MIAPaCa-2 cells = assay: Cell cycle analysis by FACS (PI), MIAPaCa-2; assay type: cell-based, human; conditions: MIAPaCa-2, 10 μM
Experimental: as §3, §4

MIAPaCa-2 = MIAPaCa-2 pancreatic cancer xenograft; assay type: in vivo, Balb/c nude mice; conditions: MIAPaCa-2 model
Experimental: For xenograft studies, five week old male Balb/c nude mice were maintained on an isoflavone-free diet to remove background isoflavone levels contributed by standard feed. On the day of inoculation a suspension of MIAPaCa2 or HPAC cells was prepared in DMEM (-FBS), chilled on ice and then an equal volume of matrigel (BD) was added. Mice were inoculated subcutaneously with 3×10^6 MIAPaCa2 or HPAC cells bilaterally (midway between the axillary and inguinal region) along the dorsal surface, ensuring that cells to be injected were growing at mid-end log phase. Tumor growth was monitored over 10-15 days. Compound 10 was given orally by gavage in 1% carboxy methyl cellulose (CMC) as a vehicle. Gemcitabine was injected intraperiponeally in PBS. In combination groups animals were first dosed with Compound 10 and then dosed with gemcitabine using the respective administration schedule, dosage and route of delivery stated.

| Structure (SMILES) | status of XIAP (XIAP) | p-Akt level [1] | levels of LC3-II (LC3-II) | mitochondrial translocation of Bax (Bid, Bax, Beclin-1; 10 μg/ml, 2 h post-treatment) | Beclin-1 translocation to the mitochondria (Bid, Bax, Beclin-1; 10 μg/ml, as early as 1 h post-treatment) | activation of Bid (Bid, Bax, Beclin-1; 10 μg/ml, total cell lysates) | Beclin-1 message or protein expression (RT-PCR, whole cell lysates) (Bid, Bax, Beclin-1; data not shown) | caspase 2, 3 and 9 activation [2] | caspase positive cells that bound both Annexin-V-Cy5 and sytox blue (later stages of apoptosis) (pancreatic cancer cells) | caspase positive cells that were Annexin-V positive and sytox blue negative (early stages of apoptosis) (pancreatic cancer cells) | caspase positive cells that were sytox blue positive and Annexin-V negative (necrosis) (pancreatic cancer cells) | mitochondrial depolarization (PANC-1 cells) | time of entering G2/M arrest post treatment (MIAPaCa-2 cells) | % T/C (mean terminal tumor burden) (MIAPaCa-2; Compound 10 100 mg/kg oral qd×12, gemcitabine 20 mg/kg q3d×4, alone or combined) | rate of tumor proliferation (MIAPaCa-2; oral 100 mg/kg, qd×12, vs vehicle control, level similar to gemcitabine) |
| --- | --- | --- | --- | --- | --- | --- | --- | --- | --- | --- | --- | --- | --- | --- | --- |
| COc1ccc(C2c3ccc(O)c(C)c3OCC2c2ccc(O)cc2)cc1 (stereo not drawn) [Compound 1, 3-(4-hydroxyphenyl)-4-(4-methoxyphenyl)-8-methylchroman-7-ol] | no change | strong down-regulation | significant increase | induces mitochondrial translocation | translocates to the mitochondria | does not induce | no changes | – | – | – | – | – | – | – | – |
| COc1ccc(C2c3ccc(O)cc3OCC2c2ccc(O)cc2)cc1 (stereo not drawn) [Compound 10, 3-(4-hydroxyphenyl)-4-(4-methoxyphenyl)chroman-7-ol] | – | – | – | – | – | – | – | activated | Approximately 30% | Approximately 60% | Less than 5% | depolarized | 24 to 48 h | 94% | retarded |
